Measurements taken from ChEMBL document CHEMBL1142043, “Potent and selective [2-imidazol-1-yl-2-(6-alkoxy-naphthalen-2-yl)-1-methyl-ethyl]-dimethyl-amines as retinoic acid metabolic blocking agents (RAMBAs)” (Bioorg Med Chem Lett, 2005).

How the values were obtained:
[1] = target: T1, Cytochrome P450 26A1 (Homo sapiens, UniProt O43174); test: Potency towards cytochrome P 450 26 enzyme activity
T1 sequence (O43174 whole entry): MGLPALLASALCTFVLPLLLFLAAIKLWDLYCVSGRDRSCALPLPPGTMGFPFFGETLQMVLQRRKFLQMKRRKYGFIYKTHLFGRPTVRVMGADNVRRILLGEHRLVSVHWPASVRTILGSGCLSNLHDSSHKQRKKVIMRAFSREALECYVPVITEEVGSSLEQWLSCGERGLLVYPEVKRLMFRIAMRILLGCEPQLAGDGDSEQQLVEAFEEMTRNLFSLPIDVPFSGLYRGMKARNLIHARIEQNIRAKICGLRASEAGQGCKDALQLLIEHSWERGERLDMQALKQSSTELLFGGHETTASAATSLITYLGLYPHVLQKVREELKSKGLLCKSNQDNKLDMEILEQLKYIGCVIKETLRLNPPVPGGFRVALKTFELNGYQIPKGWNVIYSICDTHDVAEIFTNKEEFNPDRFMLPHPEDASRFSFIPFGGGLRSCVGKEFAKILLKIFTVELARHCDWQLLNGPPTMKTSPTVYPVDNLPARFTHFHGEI

[2] = test system: T47D; test: Potency towards T47D cell; assay type: functional, cell-based, Rattus norvegicus; settings: Homo sapiens
[3] = Potency towards AT 6.1 cell; assay type: functional, Rattus norvegicus
[4] = Potency towards AT 6.1 cell; Inactive at 250 nM; assay type: functional, Rattus norvegicus
[5] = test system: T47D; test: Potency towards T47D cell; Inactive at 1 uM; assay type: functional
[6] = test system: Rattus norvegicus; test: Potency (30 mg/kg, bid) was determined towards AT 6.1 cell; assay type: organism-based

CC(C(c1ccc2cc(OCc3ccc(CC(=O)O)cc3)ccc2c1)n1ccnc1)N(C)C (stereo unspecified)
IC50 [1]: 25 nM

COC(=O)COc1ccc(COc2ccc3cc(C(C(C)N(C)C)n4ccnc4)ccc3c2)cc1 (stereo in doubt; anti)
IC50 [1]: 153 nM

CC(C(c1ccc2cc(OCc3ccc(C(=O)O)cc3)ccc2c1)n1ccnc1)N(C)C (stereo in doubt; syn)
IC50 [2]: < 100 nM
IC50 [1]: 3.3 nM
IC50 [3]: < 100 nM

COC(=O)c1cccc(COc2ccc3cc(C(C(C)N(C)C)n4ccnc4)ccc3c2)c1 (stereo in doubt; syn)
IC50 [1]: 7 nM

COC(=O)c1ccc(COc2ccc3cc(C(C(C)N(C)C)n4ccnc4)ccc3c2)cc1 (stereo in doubt; syn)
IC50 [1]: 16 nM

CC(C(c1ccc2cc(OCc3cccc(C(=O)O)c3)ccc2c1)n1ccnc1)N(C)C (stereo in doubt; syn)
IC50 [1]: 3.5 nM

CC(C(c1ccc2cc(OCc3ccc(C#N)cc3)ccc2c1)n1ccnc1)N(C)C (stereo in doubt; anti)
IC50 [1]: 71 nM

COC(=O)COc1ccc(COc2ccc3cc(C(C(C)N(C)C)n4ccnc4)ccc3c2)cc1 (stereo in doubt; syn)
IC50 [1]: 19 nM

CNC(=O)C(C)(C)COc1ccc2cc(C(C(C)N(C)C)n3ccnc3)ccc2c1 (stereo unspecified)
IC50 [4]: Inactive at 1 uM
IC50 [1]: 54 nM
IC50 [5]: Inactive at 1 uM

COC(=O)c1ccc(COc2ccc3cc(C(C(C)N(C)C)n4ccnc4)ccc3c2)cc1 (stereo in doubt; anti)
IC50 [1]: 85 nM

CC(C(c1ccc2cc(OCC(C)(C)C(N)=O)ccc2c1)n1ccnc1)N(C)C (stereo unspecified)
IC50 [4]: Inactive at 250 nM
IC50 [2]: 250 nM
IC50 [1]: 47 nM

CC(C(c1ccc2cc(OCC(C)(C)C(=O)N(C)C)ccc2c1)n1ccnc1)N(C)C (stereo unspecified)
IC50 [3]: 250 nM

Clc1cccc(C(c2ccc3[nH]cnc3c2)n2ccnc2)c1 (stereo unspecified)
inhibition [6]: 90%

CC(C(c1ccc2cc(OCc3ccc(OCC(=O)O)cc3)ccc2c1)n1ccnc1)N(C)C (stereo unspecified)
IC50 [1]: 8 nM

CC(C(c1ccc2cc(OCC(=O)O)ccc2c1)n1ccnc1)N(C)C (stereo unspecified)
IC50 [1]: 335 nM

CC(C(c1ccc2cc(OCc3cccc(C(=O)O)c3)ccc2c1)n1ccnc1)N(C)C (stereo in doubt; anti)
IC50 [1]: 6.3 nM

COC(=O)c1cccc(COc2ccc3cc(C(C(C)N(C)C)n4ccnc4)ccc3c2)c1 (stereo in doubt; anti)
IC50 [1]: 18 nM

CC(C(c1ccc2cc(OCc3ccc(OC(C)(C)C)cc3)ccc2c1)n1ccnc1)N(C)C (stereo in doubt; syn)
IC50 [1]: 34 nM

CC(C(c1ccc2cc(OCC(C)(C)C(=O)O)ccc2c1)n1ccnc1)N(C)C (stereo unspecified)
IC50 [2]: 125 nM
IC50 [3]: 300 nM

CC(C(c1ccc2cc(OCc3ccc(C(=O)O)cc3)ccc2c1)n1ccnc1)N(C)C (stereo in doubt; anti)
IC50 [1]: 12 nM

CC(C(c1ccc2cc(OCc3cccc(C(N)=O)c3)ccc2c1)n1ccnc1)N(C)C (stereo unspecified)
IC50 [4]: Inactive at 1 uM
IC50 [5]: Inactive at 1 uM

CC(C(c1ccc2cc(OCc3ccc(C#N)cc3)ccc2c1)n1ccnc1)N(C)C (stereo in doubt; syn)
IC50 [1]: 6 nM

CC(C(c1ccc2cc(OCc3cccc(C(=O)N(C)C)c3)ccc2c1)n1ccnc1)N(C)C (stereo unspecified)
IC50 [1]: 14.4 nM
IC50 [5]: Inactive at 1 uM

CC(C(c1ccc2cc(OCc3ccc(OC(C)(C)C)cc3)ccc2c1)n1ccnc1)N(C)C (stereo in doubt; anti)
IC50 [1]: 86 nM

CNC(=O)c1cccc(COc2ccc3cc(C(C(C)N(C)C)n4ccnc4)ccc3c2)c1 (stereo unspecified)
IC50 [1]: 37 nM
IC50 [3]: 250 nM
IC50 [5]: Inactive at 1 uM
